Experimental data reported in paper PMC11277489, “Novel Piperazine Derivatives of Vindoline as Anticancer Agents” (International Journal of Molecular Sciences, 2024).

Experiments:
[1] = test system: CCRF-CEM; assay: NCI60 one-dose screen (10 μM), Leukemia; format: cell-based; conditions: Homo sapiens, read-out: Growth percent rate
[2] = test system: HL-60(TB); assay: NCI60 one-dose screen (10 μM), Leukemia; format: cell-based; conditions: Homo sapiens, HL-60, read-out: Growth percent rate
[3] = test system: K-562; assay: NCI60 one-dose screen (10 μM), Leukemia; format: cell-based; conditions: Homo sapiens, K562, read-out: Growth percent rate
[4] = test system: MOLT-4; assay: NCI60 one-dose screen (10 μM), Leukemia; format: cell-based, human; conditions: Homo sapiens, MOLT-4, read-out: Growth percent rate
[5] = test system: RPMI-8226; assay: NCI60 one-dose screen (10 μM), Leukemia; format: cell-based; conditions: Homo sapiens, RPMI-8226, read-out: Growth percent rate
[6] = test system: A549/ATCC; assay: NCI60 one-dose screen (10 μM), Non-small Cell Lung Cancer; format: cell-based; conditions: Homo sapiens, A549, read-out: Growth percent rate
[7] = test system: EKVX; assay: as above; format: cell-based; conditions: Homo sapiens, read-out: Growth percent rate
[8] = test system: HOP-62; assay: as above; format: cell-based; conditions: Homo sapiens, HOP-62, read-out: Growth percent rate
[9] = test system: NCI-H23; assay: as above; format: cell-based; conditions: Homo sapiens, NCI-H23, read-out: Growth percent rate
[10] = test system: NCI-H322M; assay: as above; format: cell-based; conditions: Homo sapiens, read-out: Growth percent rate
[11] = test system: NCI-H522; assay: as above; format: cell-based; conditions: Homo sapiens, NCI-H522, read-out: Growth percent rate
[12] = test system: COLO 205; assay: NCI60 one-dose screen (10 μM), Colon Cancer; format: cell-based, human; conditions: Homo sapiens, COLO 205, read-out: Growth percent rate
[13] = test system: HCC-2998; assay: NCI60 one-dose screen (10 μM), Colon Cancer; format: cell-based; conditions: Homo sapiens, HCC 2998, read-out: Growth percent rate
[14] = test system: HCT-116; assay: NCI60 one-dose screen (10 μM), Colon Cancer; format: cell-based; conditions: Homo sapiens, HCT-116, read-out: Growth percent rate
[15] = test system: HCT-15; assay: NCI60 one-dose screen (10 μM), Colon Cancer; format: cell-based; conditions: Homo sapiens, HCT-15, read-out: Growth percent rate
[16] = test system: HT29; assay: NCI60 one-dose screen (10 μM), Colon Cancer; format: cell-based; conditions: Homo sapiens, HT-29, read-out: Growth percent rate
[17] = test system: KM12; assay: NCI60 one-dose screen (10 μM), Colon Cancer; format: cell-based, human; conditions: Homo sapiens, KM12, read-out: Growth percent rate
[18] = test system: SW-620; assay: NCI60 one-dose screen (10 μM), Colon Cancer; format: cell-based; conditions: Homo sapiens, SW-620, read-out: Growth percent rate
[19] = test system: SF-268; assay: NCI60 one-dose screen (10 μM), CNS Cancer; format: cell-based; conditions: Homo sapiens, SF-268, read-out: Growth percent rate
[20] = test system: SF-295; assay: NCI60 one-dose screen (10 μM), CNS Cancer; format: cell-based; conditions: Homo sapiens, SF-295, read-out: Growth percent rate
[21] = test system: SF-539; assay: NCI60 one-dose screen (10 μM), CNS Cancer; format: cell-based, human; conditions: Homo sapiens, SF-539, read-out: Growth percent rate
[22] = test system: SNB-19; assay: NCI60 one-dose screen (10 μM), CNS Cancer; format: cell-based; conditions: Homo sapiens, SNB-19, read-out: Growth percent rate
[23] = test system: LOX IMVI; assay: NCI60 one-dose screen (10 μM), Melanoma; format: cell-based, human; conditions: Homo sapiens, LOX IMVI, read-out: Growth percent rate
[24] = test system: MALME-3M; assay: NCI60 one-dose screen (10 μM), Melanoma; format: cell-based; conditions: Homo sapiens, Malme-3M, read-out: Growth percent rate
[25] = test system: M14; assay: NCI60 one-dose screen (10 μM), Melanoma; format: cell-based; conditions: Homo sapiens, M14, read-out: Growth percent rate
[26] = test system: MDA-MB-435; assay: NCI60 one-dose screen (10 μM), Melanoma; format: cell-based; conditions: Homo sapiens, MDA-MB-435, read-out: Growth percent rate
[27] = test system: SK-MEL-2; assay: NCI60 one-dose screen (10 μM), Melanoma; format: cell-based; conditions: Homo sapiens, SK-MEL-2, read-out: Growth percent rate
[28] = test system: SK-MEL-28; assay: NCI60 one-dose screen (10 μM), Melanoma; format: cell-based; conditions: Homo sapiens, SK-MEL-28, read-out: Growth percent rate
[29] = test system: SK-MEL-5; assay: NCI60 one-dose screen (10 μM), Melanoma; format: cell-based, human; conditions: Homo sapiens, SK-MEL-5, read-out: Growth percent rate
[30] = test system: UACC-257; assay: NCI60 one-dose screen (10 μM), Melanoma; format: cell-based; conditions: Homo sapiens, UACC-257, read-out: Growth percent rate
[31] = test system: IGROV1; assay: NCI60 one-dose screen (10 μM), Ovarian Cancer; format: cell-based; conditions: Homo sapiens, IGROV-1, read-out: Growth percent rate
[32] = test system: OVCAR-3; assay: NCI60 one-dose screen (10 μM), Ovarian Cancer; format: cell-based; conditions: Homo sapiens, OVCAR-3, read-out: Growth percent rate
[33] = test system: OVCAR-4; assay: NCI60 one-dose screen (10 μM), Ovarian Cancer; format: cell-based; conditions: Homo sapiens, OVCAR-4, read-out: Growth percent rate
[34] = test system: OVCAR-8; assay: NCI60 one-dose screen (10 μM), Ovarian Cancer; format: cell-based; conditions: Homo sapiens, OVCAR-8, read-out: Growth percent rate
[35] = test system: 786–0; assay: NCI60 one-dose screen (10 μM), Renal Cancer; format: cell-based; conditions: Homo sapiens, 786-0, read-out: Growth percent rate
[36] = test system: ACHN; assay: NCI60 one-dose screen (10 μM), Renal Cancer; format: cell-based; conditions: Homo sapiens, read-out: Growth percent rate
[37] = test system: CAKI-1; assay: NCI60 one-dose screen (10 μM), Renal Cancer; format: cell-based; conditions: Homo sapiens, CAKI-1, read-out: Growth percent rate
[38] = test system: RXF 393; assay: NCI60 one-dose screen (10 μM), Renal Cancer; format: cell-based, human; conditions: Homo sapiens, RXF 393, read-out: Growth percent rate
[39] = test system: SN12C; assay: NCI60 one-dose screen (10 μM), Renal Cancer; format: cell-based; conditions: Homo sapiens, read-out: Growth percent rate
[40] = test system: TK-10; assay: NCI60 one-dose screen (10 μM), Renal Cancer; format: cell-based; conditions: Homo sapiens, TK-10, read-out: Growth percent rate
[41] = test system: MCF7; assay: NCI60 one-dose screen (10 μM), Breast Cancer; format: cell-based; conditions: Homo sapiens, MCF7, read-out: Growth percent rate
[42] = test system: HS 578T; assay: NCI60 one-dose screen (10 μM), Breast Cancer; format: cell-based; conditions: Homo sapiens, Hs-578T, read-out: Growth percent rate

Compound: CCC12C=CCN3CCC4(c5cc(NC(=O)CN6CCN(Cc7ccc(C(F)(F)F)cc7)CC6)c(OC)cc5N(C)C4C(O)(C(=O)OC)C1OC(C)=O)C32 (stereo not drawn) [Compound 18]
- activity at 10 µM [1]: 39.4%
- activity at 10 µM [2]: 42.6%
- activity at 10 µM [3]: 43.8%
- activity at 10 µM [4]: 16.7%
- activity at 10 µM [5]: 17.4%
- activity at 10 µM [6]: 54.1%
- activity at 10 µM [7]: 61.6%
- activity at 10 µM [8]: 86.1%
- activity at 10 µM [9]: 73.1%
- activity at 10 µM [10]: 64.6%
- activity at 10 µM [11]: 55.2%
- activity at 10 µM [12]: 56.5%
- activity at 10 µM [13]: 79.1%
- activity at 10 µM [14]: 46.4%
- activity at 10 µM [15]: 49.7%
- activity at 10 µM [16]: 39.3%
- activity at 10 µM [17]: 83%
- activity at 10 µM [18]: 87%
- activity at 10 µM [19]: 65.2%
- activity at 10 µM [20]: 75.4%
- activity at 10 µM [21]: 73.1%
- activity at 10 µM [22]: 47.4%
- activity at 10 µM [23]: 58.4%
- activity at 10 µM [24]: 73.3%
- activity at 10 µM [25]: 67.2%
- activity at 10 µM [26]: 63.9%
- activity at 10 µM [27]: 72.9%
- activity at 10 µM [28]: 90.8%
- activity at 10 µM [29]: 21.2%
- activity at 10 µM [30]: 80.6%
- activity at 10 µM [31]: 71.3%
- activity at 10 µM [32]: 84.5%
- activity at 10 µM [33]: 63.1%
- activity at 10 µM [34]: 72%
- activity at 10 µM [35]: 75.5%
- activity at 10 µM [36]: 67.3%
- activity at 10 µM [37]: 33%
- activity at 10 µM [38]: 41%
- activity at 10 µM [39]: 59.3%
- activity at 10 µM [40]: 81.5%
- activity at 10 µM [41]: 32.6%
- activity at 10 µM [42]: 62.5%
